Experimental data taken from patent publication US12454675B2, “Method of increasing protein yield in mammalian cells in serum-free culture medium” (AGENCY FOR SCIENCE, TECHNOLOGY AND RESEARCH, priority 2016, dated 2025).

Assays:
Assay type in all cases: cell-based, Chinese Hamster
CHO-DG44 cells = assay: Disaccharides to support growth of CHO-DG44 cells in HyQ PF-CHO; conditions: 10 g/l sugar, 22 days
Text: In (A) CHO-K1 cells were cultivated in a serum-free protein-free cell culture medium, HyQ PF-CHO, with 3.6 g/l of different sugars (maltose, sucrose, lactose, trehalose or glucose) as carbohydrate source. The viable cell densities (lined markers) and culture viabilities (marker only) of these cultures at the beginning and end of each passage over a period of 74 days were plotted. Cultures with sucrose, lactose or trehalose were terminated on Day 31 due to the decreased culture viabilities and reduced viable cell densities. The experiment was repeated with a seeding cell density of 1.0×10^6 cells/ml to obtain similar results. In (B) CHO-DG44 cells were cultivated with a seeding cell density of 1.0×10^6 cells/ml in a serum-free protein-free cell culture medium, HyQ PF-CHO, with 10 g/l of different sugars (maltose, sucrose, lactose, trehalose or glucose) as carbohydrate source. The viable cell densities (lined markers) and cell viabilities (marker only) of these cultures at the beginning and end of each passage over a period of 22 days were plotted. In (C) HEK293 cells were cultivated with a seeding cell density of 1.0×10^6 cells/ml in a protein-free chemically defined cell culture medium, PFCDM, with 10 g/l of different sugars (maltose, sucrose, lactose, trehalose or glucose) as carbohydrate source. The viable cell densities (lined markers) and cell viabilities (marker only) of these cultures at the beginning and end of each passage over a period of 22 days were plotted. Cultures with sucrose, lactose or trehalose were terminated on Day 14 due to the decreased culture viabilities and reduced viable cell densities.
To determine whether the same approach can be applied on other CHO cell lines, the use of disaccharides to support the growth of CHO-DG44 cells was evaluated. These cells were cultivated with 10 g/l of maltose, sucrose, lactose, trehalose or glucose as energy source in a serum-free protein-free cell culture medium HyQ PF-CHO. The viable cell densities and culture viabilities of these cultures at the beginning and end of each passage over a period of 22 days are shown in FIG. 1B.

SH87 cells = assay: Specific maltose consumption rate, Monod model; conditions: non-linear regression
Description: Specific substrate consumption rate (qs) between culture times t1 and t2 was determined by plotting substrate concentration (S) vs IVCD according to Equation 4. −qs=(St2−St1)/IVCD St2=−qs×IVCD+St1 Equation 4
Specific substrate consumption rate (qs) was fitted into a Monod model according to Equation 5, where qs_max is the maximum specific substrate consumption rate, S is the substrate concentration, and Ks is the affinity constant. qs=(qs_max×S)/(Ks+S) Equation 5
To characterize the maltose metabolism in the maltose supplemented cultures, the specific maltose consumption rates were obtained from plots of maltose concentrations against cumulative integral viable cell densities (IVCD) according to Equation 4. […] Comparing with published specific monosaccharide consumption rates using 3.6 g/l of monosaccharides (Altamirano et al., 2000), the maximum specific maltose consumption rate determined here is similar to the specific consumption rates of fructose (0.21 ng/cell/day) and galactose (0.21 ng/cell/day) while being lower than the measured specific consumption rates of glucose (0.76 ng/cell/day) and mannose (0.88 ng/cell/day). […] While the present inventors noted that these parameters can be more accurately determined in continuous cultures, it may be practically challenging at low maltose concentrations since growth rates will be low.

CHO-K1 cells = CHO-K1 cells in PFCDM with increasing concentration of maltose; conditions: maltose-adapted CHO-K1, PFCDM, maltose 10 g/l to 40 g/l
Text: CHO-K1 cells adapted to PFCDM with 10 g/L of maltose was cultivated in PFCDM with 10, 20, 30 and 40 g/L maltose in batch shake flask cultures. The cultures were monitored till culture viabilities were lower than 50%, to obtain their (A) Viable cell densities (lined marker) and culture viabilities (marker only), and (B) Osmolality, (C) Glucose, (D) Lactate, (E) Glutamine and (F) Ammonium profiles. […] Even with the higher maltose concentration, lactate concentration was kept at a low level till viability started to drop on Day 6.
Examining glutamine consumption, while this was slower in the maltose culture compared to the glucose culture (FIG. 2D), it was likely due to the slower growth of the maltose culture. […] This hypothesis is supported by the ammonium production profiles: while the specific ammonium production rate was initially similar for both cultures, that for the glucose culture slowed considerably from Day 2 (FIG. 2G) to attain a final ammonium concentration of 0.14 g/l (FIG. 2E), whereas the specific ammonium production rate of the maltose culture continued at a similar rate till Day 5 to attain a higher final ammonium concentration of 0.20 g/1. […]

In the case of OC[C@H]1O[C@H](O[C@H]2[C@H](O)[C@@H](O)[C@H](O)O[C@@H]2CO)[C@H](O)[C@@H](O)[C@@H]1O [maltose], the “proliferation in serum-free protein-free culture medium with the sugar as sugar source” value (CHO-DG44 cells) is reported as “can also proliferate”, the “affinity constant (Ks)” value (SH87 cells) is reported as 7.03 g/L and the “maximum specific maltose consumption rate (qs_max)” value (SH87 cells) is reported as 0.257 ng/cell/day. For the same compound, the “proliferation with increased concentrations of maltose” value (CHO-K1 cells) was “proliferated faster”.
